{"source": "patent US12447213B2", "about": "“Modulation of novel immune checkpoint targets” (The Brigham and Women's Hospital, Inc., priority 2016, dated 2025)", "key": {"[1]": {"tested_on": "Factor VII", "conditions": "LNP siRNA systems containing these lipids; cited from earlier work"}, "[2]": {"tested_on": "naïve CD4 T cells", "assay": "Gp49 expression on naïve CD4 T cells cultured with polarizing cytokines (FACS day 3)", "format": "cell-based, mice", "conditions": "plate-bound anti-CD3/anti-CD28 plus polarizing cytokines"}, "[3]": {"tested_on": "Th17 cells", "assay": "Binding of recombinant His-tagged integrin αvβ3 to Th17 cells (FACS)", "parameters": "species or system mice", "conditions": "pathogenic and non-pathogenic Th17", "protocol": "(§1) FIG. 38. Integrin avb3 doesn't bind to Th17 cells (in Hank's balanced salt solution ((HBSS)) in the presence of Ca2+ and Mg2+. In vitro differentiated pathogenic and non-pathogenic Th17 cells were incubated with recombinant His-tagged integrin avb3 in HBSS buffer at room temperature for 30 min, washed twice, and then incubated with anti-His antibody for 10 min. Stained cells were analyzed by FACS.\nas §1, with “FIG. 39.” for “FIG. 38.”, “(in phosphate buffered saline ((PBS))” for “(in Hank's balanced salt solution ((HBSS))”, “the absence” for “the presence”, “integrin αvβ3” for “integrin avb3”, “in PBS” for “in HBSS”\nRole of Gp49 Ligand Integrin αvβ3. Integrin αvβ3 is a known ligand of ILT-3 that induces human mast cell degranulation in a Gp49b dependent way. To determine the expression pattern of integrin αvβ3, FACs analysis was performed on various immune cell subsets. […] Expression of αv and β3 integrin were analyzed by FACS and qPCR on day 4. […] Stained cells were analyzed by FACS. […] Stained cells were analyzed by FACS. […] Next, the effect of plate-bound integrin was determined. […] Cytokine production from Th17 cells was measured by FACS on day 4."}, "[4]": {"tested_on": "Th17 cells", "assay": "Th17 differentiation in the presence of plate bound integrin αvβ3, cytokine production by FACS", "format": "cell-based, mice", "conditions": "10 ug/ml, BSA as control", "protocol": "FIG. 40. […] Anti-CD3/CD28 beads are used at a ratio of 1:1. Naïve T cells were differentiated into pathogenic or non-pathogenic Th17 cells in vitro with anti-CD3/CD28 Dynabeads (Thermo Fisher Scientific) in the presence of plate bound integrin avb3 (10 ug/ml) or BSA (10 ug/ml) as control. Cytokine production from Th17 cells were measured by FACS on day 4.\nRole of Gp49 Ligand Integrin αvβ3. Integrin αvβ3 is a known ligand of ILT-3 that induces human mast cell degranulation in a Gp49b dependent way. To determine the expression pattern of integrin αvβ3, FACs analysis was performed on various immune cell subsets. CD4^+CD44^loCD62L^hi naïve CD4 T cells were sorted by FACS and cultured in vitro with plate-bound anti-CD3 (2 ug/ml) and anti-CD28 (2 ug/ml) plus the following polarizing cytokines: IL12 (20 ng/ml) for Th1 cells; IL4 (20 ng/ml) for Th2 cells; TGFb (5 ng/ml) for iTreg cells; IL27 (25 ng/ml) for Tr1 cells; TGFb (2 ng/ml) and IL6 (25 ng/ml) for non-pathogenic Th17; IL1 (20 ng/ml), IL6 (25 ng/ml) and IL23 (20 ng/ml) for pathogenic Th17. Expression of αv and β3 integrin were analyzed by FACS and qPCR on day 4. […] Stained cells were analyzed by FACS. […] Stained cells were analyzed by FACS. […] Next, the effect of plate-bound integrin was determined. […] Cytokine production from Th17 cells was measured by FACS on day 4."}, "[5]": {"tested_on": "naïve CD4+ and CD8+ T cells", "assay": "In vitro T-cell differentiation with IL-27: co-inhibitory receptor expression by real-time PCR and flow cytometry", "format": "cell-based, mice", "source_text": "FIG. 1A-1M. illustrates that IL-27 induces multiple co-inhibitory receptors on CD4^+ and CD8^+ T cells. CD4^+ and CD8^+ tumor-infiltrating lymphocytes (TILs) harvested from wild type (WT) mice bearing B16F10 melanoma tumors. FIG. 1A) Naïve T cells from either WT or IL-27ra deficient mice (IL27ra KO) were stimulated with anti-CD3/CD28 in the presence or absence of IL-27 as indicated. Expression of the indicated co-inhibitory molecules was examined by real-time PCR at 96 hr (CD4) and 72 hr (CD8), n≥3, error bars indicate s.e.m. FIG. 1B) Surface expression of co-inhibitory receptors on T cells stimulated as in (A) was determined by flow cytometry. Representative data are shown. FIG. 1C) Co-expression analysis of co-inhibitory and co-stimulatory receptor mRNA expression as determined by single cell RNAseq (316 and 516 for CD4^+ and CD8^+ respectively). For visualization purposes negative correlation values were set to zero. FIG. 1D) Protein expression by CyTOF for 23,656 CD4^+ and 36,486 CD8^+ TILs. Co-expression was analyzed using Spearman correlation. For visualization purposes negative correlation values were set to zero. FIG. 1E) TILs were harvested from WT and IL27ra KO mice bearing B16F10 melanoma and analyzed using CyTOF. CyTOF data were analyzed using vi-SNE. Polygons indicating clusters 1, 2 (in CD8^+ T cells), 3 and 4 (in CD4^+ T cells) are shown. FIG. 1F) The within groups sum of squared error (SSE) plot. […] FIG. 1G) Gap statistics for estimating the optimal number of clusters using k-means from 1 up to 12 clusters using bootstrapping and first SE max method. […] Visualization of cluster distribution using two-dimensional non-linear embedding of the protein expression profiles by t-SNE. FIG. 1I) CyTOF expression analysis of co-inhibitory and co-stimulatory receptors in TILs harvested from B16F10 melanoma tumor-bearing WT and […] mice from FIG. 1A and FIG. 1J using t-SNE. FIG. 1J) vi-SNE plot highlighting the distribution of CD8^+ TILs from WT (red) and IL27ra KO (blue) mice in clusters 1 and 2 and CD4^+ TILs from WT (red) and IL27ra KO (blue) mice in clusters 3 and 4. Pie charts show the distribution of WT or IL27ra KO CD8^+ and CD4^+ TILs in each cluster. Bar graphs show the mean of signal intensity for PD-1, Tim-3, Lag-3, and TIGIT from WT and IL27ra KO TILs. Error bars are the standard error and p-values for significance are calculated using standard t-test (**p<0.01). FIG. 1K) Expression of PD-1, Tim-3, Lag-3, TIGIT, and IL-10 on CD8^+ TILs obtained from WT and IL27ra KO mice bearing B16F10 melanoma was determined by flow cytometry. Thy1.1-IL-10 reporter mice crossed with WT and IL27ra KO mice were used for IL-10 expression analysis. FIG. 1L, FIG. 1M) Impact of IL-27 signaling on co-inhibitory receptor expression in TILs. Pie charts show the distribution of CD8^+ and CD4^+ TILs from WT and IL27ra KO mice bearing B16F10 melanoma between clusters 1 and 2 for CD8^+ and between clusters 3 and 4 for CD4^+ TILs as determined by k-means clustering of CyTOF protein expression data.\nFlow cytometry: Single cell suspensions were stained with antibodies against CD4 (RM4-5), CD8 (53-6.7), PD-1 (RMP1-30), Lag-3 (C9B7W), TIGIT (GIGD7), and Tim-3 (5D12), Procr (eBio1560), and Pdpn (8.1.1) and were obtained from BioLegend (San Diego, Calif.). Fixable viability dye eF506 (eBioscience) was used to exclude dead cells. For intra-cytoplasmic cytokine staining, cells were stimulated with (PMA) (50 ng/ml, Sigma-Aldrich, MO), ionomycin (1 μg/ml, Sigma-Aldrich, MO). Permeabilized cells were then stained with antibodies against IL-2, TNF-α, IFN-γ or IL-10. All data were collected on a BD LSR II (BD Biosciences) and analyzed with FlowJo software (Tree Star).\nIn vitro T-cell differentiation: CD4^+ and CD8^+ T cells were purified from spleen and lymph nodes using anti-CD4 microbeads (Miltenyi Biotech) then stained in PBS with 0.5% BSA for 15 min on ice with anti-CD4, anti-CD8, anti-CD62L, and anti-CD44 antibodies (all from Biolegend, CA). […]"}, "[6]": {"conditions": "activation of naïve CD4+ and CD8+ T cells in vitro in the presence of IL-27"}, "[7]": {"conditions": "anti-CD3/CD28 in the presence of IL-27, CD4+ and CD8+ T cells"}}, "data": [{"molecule": "1,2-dilinoleyloxy-keto-N,N-dimethyl-3-aminopropane [DLinKDMA]", "values": [{"measurement": "gene silencing potency series", "setting": "[1]", "value": "DLinKC2-DMA>DLinKDMA>DLinDMA>>DLinDAP"}]}, {"molecule": "CCCCC/C=C\\C/C=C\\CCCCCCCC(=O)OCC(CN(C)C)OC(=O)CCCCCCC/C=C\\C/C=C\\CCCCC", "note": "(centres unmarked) [DLinDAP, 1,2-dilineoyl-3-dimethylammonium-propane]", "values": [{"measurement": "gene silencing potency series", "setting": "[1]", "value": "DLinKC2-DMA>DLinKDMA>DLinDMA>>DLinDAP"}]}, {"molecule": "CCCCC/C=C\\C/C=C\\CCCCCCCCC1(CCCCCCCC/C=C\\C/C=C\\CCCCC)OCC(CCN(C)C)O1", "note": "(centres unmarked) [DLinKC2-DMA, 1,2-dilinoleyl-4-(2-dimethylaminoethyl)-[1,3]-dioxolane]", "values": [{"measurement": "gene silencing potency series", "setting": "[1]", "value": "DLinKC2-DMA>DLinKDMA>DLinDMA>>DLinDAP"}]}, {"molecule": "TGFb", "values": [{"measurement": "Gp49 expression", "setting": "[2]", "value": "inhibited"}]}, {"molecule": "Integrin αvβ3: recombinant His-tagged integrin αvβ3, a known ligand of ILT-3", "values": [{"measurement": "binding to Th17 cells", "setting": "[3]; HBSS, in the presence of Ca2+ and Mg2+", "value": "doesn't bind"}, {"measurement": "binding to Th17 cells", "setting": "[3]; PBS, in the absence of Ca2+ and Mg2+", "value": "doesn't bind"}, {"measurement": "effect on Th17 cells (cytokine production, FACS day 4)", "setting": "[4]", "value": "does not appear to have much effect"}]}, {"molecule": "CCCCC/C=C\\C/C=C\\CCCCCCCCOCC(CN(C)C)OCCCCCCCC/C=C\\C/C=C\\CCCCC", "note": "(centres unmarked) [DLinDMA, 1,2-dilinoleyloxy-3-N,N-dimethylaminopropane]", "values": [{"measurement": "gene silencing potency series", "setting": "[1]", "value": "DLinKC2-DMA>DLinKDMA>DLinDMA>>DLinDAP"}]}, {"molecule": "IL-27: heterodimeric cytokine, member of the IL-12 family; rmIL-27 (25 ng/ml) (eBioscience) used in vitro (protein) chain 1: FPTDPLSLQELRREFTVSLYLARKLLSEVQGYVHSFAESRLPGVNLDLLPLGYHLPNVSLTFQAWHHLSDSERLCFLATTLRPFPAMLGGLGTQGTWTSSEREQLWAMRLDLRDLHRHLRFQVLAAGFKCSKEEEDKEEEEEEEEEEKKLPLGALGGPNQVSSQVSWPQLLYTYQLLHSLELVLSRAVRDLLLLSLPRRPGSAWDS chain 2: YTETALVALSQPRVQCHASRYPVAVDCSWTPLQAPNSTRSTSFIATYRLGVATQQQSQPCLQRSPQASRCTIPDVHLFSTVPYMLNVTAVHPGGASSSLLAFVAERIIKPDPPEGVRLRTAGQRLQVLWHPPASWPFPDIFSLKYRLRYRRRGASHFRQVGPIEATTFTLRNSKPHAKYCIQVSAQDLTDYGKPSDWSLPGQVESAPHKP", "values": [{"measurement": "Pdpn expression by qPCR and flow cytometry", "setting": "[5]; [6]", "value": "induced"}, {"measurement": "Procr expression by qPCR and flow cytometry", "setting": "[5]; [6]", "value": "induced"}, {"measurement": "Lag-3 expression, mRNA and protein level", "setting": "[5]; [7]", "value": "induced"}, {"measurement": "TIGIT expression, mRNA and protein level", "setting": "[5]; [7]", "value": "induced"}, {"measurement": "Tim-3 (Havcr2) expression, mRNA and protein level", "setting": "[5]; [7]", "value": "induced"}, {"measurement": "PD-1 (Pdcd1) expression", "setting": "[5]; in vitro, anti-CD3/CD28 in the presence of IL-27", "value": "not affected"}]}]}
